Results on 6 cell lines are retold here after the supplement of paper PMC10307832.

Assay in all cases: relative viability (nuclei count vs DMSO), 5 days (fraction); higher = more cells survive
Compound in the assay “17-AAG + Palbociclib”: C=CCNC1=C2C[C@@H](C)C[C@H](OC)[C@H](O)[C@@H](C)/C=C(\C)[C@H](OC(N)=O)[C@@H](OC)/C=C\C=C(/C)C(=O)NC(=CC1=O)C2=O [17-AAG] + CC(=O)c1c(C)c2cnc(Nc3ccc(N4CCNCC4)cn3)nc2n(C2CCCC2)c1=O [Palbociclib] (partner 0.5 µM)
The essentials:
(§1)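 The day after seeding in 1536-well plates, lung cancer cell lines were treated by pin tool with a single drug, or with a fixed anchor-drug dose together with five library-drug doses (not always all listed) in √10 steps. After 5 days, a combined fix-and-stain solution (final 0.05% Triton X-100, 1% formaldehyde, 1 ug/ml Hoechst) was added. Nuclei counted on 4× images gave relative viability as treated counts over vehicle counts, reported as the median of duplicate plates.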

Compound in the assay “17-AAG + AZD7762”: C=CCNC1=C2C[C@@H](C)C[C@H](OC)[C@H](O)[C@@H](C)/C=C(\C)[C@H](OC(N)=O)[C@@H](OC)/C=C\C=C(/C)C(=O)NC(=CC1=O)C2=O [17-AAG] + NC(=O)Nc1cc(-c2cccc(F)c2)sc1C(=O)N[C@H]1CCCNC1 [AZD7762] (partner 0.2 µM)
The method in brief:
as §1

Compound in the assay “17-AAG + Vorinostat”: C=CCNC1=C2C[C@@H](C)C[C@H](OC)[C@H](O)[C@@H](C)/C=C(\C)[C@H](OC(N)=O)[C@@H](OC)/C=C\C=C(/C)C(=O)NC(=CC1=O)C2=O [17-AAG] + O=C(CCCCCCC(=O)Nc1ccccc1)NO [Vorinostat] (partner 1 µM)
The method in brief:
as §1

Compound in the assay “17-AAG + Crizotinib”: C=CCNC1=C2C[C@@H](C)C[C@H](OC)[C@H](O)[C@@H](C)/C=C(\C)[C@H](OC(N)=O)[C@@H](OC)/C=C\C=C(/C)C(=O)NC(=CC1=O)C2=O [17-AAG] + C[C@@H](Oc1cc(-c2cnn(C3CCNCC3)c2)cnc1N)c1c(Cl)ccc(F)c1Cl [Crizotinib] (partner 1 µM)
The method in brief:
as §1

Regarding NCI-H1395, the relative viability in the assay with 17-AAG + Palbociclib (first compound 0.00128 µM) came to 0.632; with 17-AAG + Palbociclib (first compound 0.004048 µM), 0.61; in the assay with 17-AAG + Palbociclib (first compound 0.0128 µM), 0.532; with 17-AAG + Palbociclib (first compound 0.04048 µM), 0.373; in the assay with 17-AAG + Palbociclib (first compound 0.128 µM), 0.384; with 17-AAG + AZD7762 (first compound 0.00128 µM), 0.415. For the same cell line, the relative viability in the assay with 17-AAG + AZD7762 (first compound 0.004048 µM) stood at 0.431; with 17-AAG + AZD7762 (first compound 0.0128 µM) it was 0.395; with 17-AAG + AZD7762 (first compound 0.04048 µM), 0.34; with 17-AAG + AZD7762 (first compound 0.128 µM), 0.337; with 17-AAG + Vorinostat (first compound 0.00128 µM) it was 0.626; with 17-AAG + Vorinostat (first compound 0.004048 µM), 0.607. The relative viability was 0.415 in the assay with 17-AAG + Vorinostat (first compound 0.0128 µM), 0.366 in the assay with 17-AAG + Vorinostat (first compound 0.04048 µM) and 0.368 with 17-AAG + Vorinostat (first compound 0.128 µM).

Take NCI-H1563: the relative viability came to 0.903 with 17-AAG + Crizotinib (first compound 0.00128 µM); 0.836 with 17-AAG + Crizotinib (first compound 0.004048 µM); 0.562 with 17-AAG + Crizotinib (first compound 0.0128 µM); 0.462 with 17-AAG + Crizotinib (first compound 0.04048 µM); 0.473 in the assay with 17-AAG + Crizotinib (first compound 0.128 µM).

NCI-H1648: the relative viability with 17-AAG + Palbociclib (first compound 0.004048 µM) worked out at 0.348; with 17-AAG + Palbociclib (first compound 0.0128 µM), 0.32; in the assay with 17-AAG + Palbociclib (first compound 0.04048 µM), 0.431; in the assay with 17-AAG + Palbociclib (first compound 0.128 µM), 0.387; with 17-AAG + AZD7762 (first compound 0.004048 µM), 0.854; with 17-AAG + AZD7762 (first compound 0.0128 µM) it was 0.558. Besides, the relative viability turned out to be 0.626 with 17-AAG + AZD7762 (first compound 0.04048 µM); 0.325 in the assay with 17-AAG + AZD7762 (first compound 0.128 µM); 0.433 with 17-AAG + Vorinostat (first compound 0.004048 µM); 0.362 with 17-AAG + Vorinostat (first compound 0.0128 µM); 0.538 with 17-AAG + Vorinostat (first compound 0.04048 µM); 0.243 in the assay with 17-AAG + Vorinostat (first compound 0.128 µM).

As for NCI-H1650, the relative viability in the assay with 17-AAG + Palbociclib (first compound 0.00128 µM) came out at 0.294; with 17-AAG + Palbociclib (first compound 0.004048 µM) it was 0.187; with 17-AAG + Palbociclib (first compound 0.0128 µM), 0.122; in the assay with 17-AAG + Palbociclib (first compound 0.04048 µM) it was 0.115; in the assay with 17-AAG + Palbociclib (first compound 0.128 µM), 0.0961; in the assay with 17-AAG + Crizotinib (first compound 0.00128 µM), 1.01. In addition, the relative viability was 0.659 with 17-AAG + Crizotinib (first compound 0.004048 µM); 0.136 with 17-AAG + Crizotinib (first compound 0.0128 µM); 0.179 in the assay with 17-AAG + Crizotinib (first compound 0.04048 µM); 0.126 in the assay with 17-AAG + Crizotinib (first compound 0.128 µM); 0.371 with 17-AAG + Vorinostat (first compound 0.00128 µM); 0.376 in the assay with 17-AAG + Vorinostat (first compound 0.004048 µM). Besides, the relative viability with 17-AAG + Vorinostat (first compound 0.0128 µM) was found to be 0.232; with 17-AAG + Vorinostat (first compound 0.04048 µM), 0.152; with 17-AAG + Vorinostat (first compound 0.128 µM), 0.138.

In the case of NCI-H1703, the relative viability with 17-AAG + Crizotinib (first compound 0.00128 µM) was found to be 0.611; with 17-AAG + Crizotinib (first compound 0.004048 µM) it was 0.634; in the assay with 17-AAG + Crizotinib (first compound 0.0128 µM), 0.129; with 17-AAG + Crizotinib (first compound 0.04048 µM), 0.151; with 17-AAG + Crizotinib (first compound 0.128 µM) it was 0.119; in the assay with 17-AAG + AZD7762 (first compound 0.00128 µM), 0.114. The relative viability was found to be 0.156 in the assay with 17-AAG + AZD7762 (first compound 0.004048 µM), 0.113 with 17-AAG + AZD7762 (first compound 0.0128 µM), 0.109 with 17-AAG + AZD7762 (first compound 0.04048 µM) and 0.134 in the assay with 17-AAG + AZD7762 (first compound 0.128 µM).

As for NCI-H1792, the relative viability was determined as 0.592 in the assay with 17-AAG + Palbociclib (first compound 0.00128 µM); 0.635 with 17-AAG + Palbociclib (first compound 0.004048 µM); 0.542 with 17-AAG + Palbociclib (first compound 0.0128 µM); 0.459 in the assay with 17-AAG + Palbociclib (first compound 0.04048 µM); 0.278 with 17-AAG + Palbociclib (first compound 0.128 µM); 0.997 with 17-AAG + Crizotinib (first compound 0.00128 µM). The relative viability with 17-AAG + Crizotinib (first compound 0.004048 µM) came out at 1.02; in the assay with 17-AAG + Crizotinib (first compound 0.0128 µM), 0.897; with 17-AAG + Crizotinib (first compound 0.04048 µM) it was 0.848; with 17-AAG + Crizotinib (first compound 0.128 µM), 0.19; in the assay with 17-AAG + AZD7762 (first compound 0.00128 µM) it was 0.494; with 17-AAG + AZD7762 (first compound 0.004048 µM) it was 0.302. Besides, the relative viability with 17-AAG + AZD7762 (first compound 0.0128 µM) amounted to 0.0583; in the assay with 17-AAG + AZD7762 (first compound 0.04048 µM) it was 0.0445; with 17-AAG + AZD7762 (first compound 0.128 µM), 0.0494.
